Assay results: PubChem BioAssay (NCI)
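Exposure lasted 48 hours, with cells grown in 96-well plates and compounds tested at five concentrations. TGI: concentration producing complete growth inhibition.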

Tested on: TK-10 renal
Test: NCI anticancer screen, dose series, 48 h

Structure (SMILES)	TGI [µM]
O=[N+]([O-])c1ccc2[nH]c(=S)[nH]c(=S)c2c1	> 100

Tested on: OVCAR-5 ovarian
Test: NCI anticancer screen, dose series, 48 h

Structure (SMILES)	TGI [µM]
O=[N+]([O-])C[C@@]12O[C@]3(O)C4C5CC(C6C5C3C61)C42 (some centres not stated)	> 100
O=C1C2SC34c5c2c2ccccc2n5CCC3CCCN14 (configuration not stated)	> 100
CCCC(=O)NC(NC1CCCCC1)(C(=O)OCC)C(F)(F)F (configuration not stated)	> 100
O=C(/C=C/c1ccccc1)Oc1cccc(O)c1	> 100
COc1cccc(C(=O)Oc2ccc(OS(=O)(=O)c3ccc(C)cc3)cc2)c1C#N	> 100
CC1(C)/C(=N\NC(N)=O)C2CCC1C2 (configuration not stated)	> 100
Cc1ccc(C2SCC(=O)N2c2ccc(-n3c(-c4ccccc4)nc4ccccc4c3=O)cc2)cc1 (configuration not stated)	> 100
CC1(C)[C@@H](Cn2ccc(=O)[nH]c2=O)CC[C@@]1(C)CO	> 100
CC(C)C1=CC23CCC4C(C)(C(=O)O)CCCC4(C)C2CC1C1C(=O)N(c2ccc(Cc4ccc(N5C(=O)C6C7CC8C9(C)CCCC(C)(C(=O)O)C9CCC8(C=C7C(C)C)C6C5=O)cc4)cc2)C(=O)C13 (configuration not stated)	35.8
CCCNC(=O)NNC(=O)c1c[nH]c2nc(C)ccc2c1=O	> 100
C=CCCON(C(=O)OC(C)(C)C)C(C)(C)C	> 100
CCOC(=O)Nc1[nH]cc(-c2ccccc2)c1C#N	> 100
[N-]=[N+]=NC1(Cc2ccccc2)C(=O)c2cccc3c2N(CCC3)C1=O (configuration not stated)	> 100
NC(N)=NS(=O)(=O)c1ccc(NNc2c3ccccc3nc3c(C(=O)Nc4ccc(S(=O)(=O)Nc5ncccn5)cc4)cccc23)cc1	> 100
O=c1oc2ccccc2cc1-c1cc2ccccn2c1	> 100
COC(=O)c1c(O)ccc2c1c1c(n2Cc2cc(OC)cc(OC)c2)C(=O)c2ccccc2C1	56.1
COC[C@@H](N=CC(C)(C)C)C(C)C	> 100
NC(N)=NCCN1CC2CCC(CC2)C1	> 100
O=C1COc2cccnc2N1CCCCO	> 100
O=[N+]([O-])c1cccc(C2=NN(c3ccccc3)C[N+](c3ccc(Br)cc3)=N2)c1	> 100
O=C(O)CCCc1nc2c(n1Cc1ccccc1)C(=O)c1ccccc1C2=O	> 100
CCOC(=O)NC(Nc1ccc(C)cc1)(C(F)(F)F)C(F)(F)F	> 100
[N-]=[N+]=Nc1c([N+](=O)[O-])c(=O)n(-c2ccccc2)c2ccccc12	> 100
O=[N+]([O-])c1ccc2[nH]c(=S)[nH]c(=S)c2c1	> 100

Tested on: NCI-H226 lung
Test: NCI anticancer screen, dose series, 48 h

Structure (SMILES)	TGI [µM]
O=[N+]([O-])C[C@@]12O[C@]3(O)C4C5CC(C6C5C3C61)C42 (some centres not stated)	> 100
O=C1C2SC34c5c2c2ccccc2n5CCC3CCCN14 (configuration not stated)	> 100
CCCC(=O)NC(NC1CCCCC1)(C(=O)OCC)C(F)(F)F (configuration not stated)	> 100
O=C(/C=C/c1ccccc1)Oc1cccc(O)c1	> 100
Cc1c2n(c(=O)[nH]c1=O)C1OC(CO)C(O2)C1O (configuration not stated)	> 100
COc1cccc(C(=O)Oc2ccc(OS(=O)(=O)c3ccc(C)cc3)cc2)c1C#N	> 100
CC1(C)/C(=N\NC(N)=O)C2CCC1C2 (configuration not stated)	> 100
Cc1ccc(C2SCC(=O)N2c2ccc(-n3c(-c4ccccc4)nc4ccccc4c3=O)cc2)cc1 (configuration not stated)	57.3
CC1(C)[C@@H](Cn2ccc(=O)[nH]c2=O)CC[C@@]1(C)CO	> 100
CC(C)C1=CC23CCC4C(C)(C(=O)O)CCCC4(C)C2CC1C1C(=O)N(c2ccc(Cc4ccc(N5C(=O)C6C7CC8C9(C)CCCC(C)(C(=O)O)C9CCC8(C=C7C(C)C)C6C5=O)cc4)cc2)C(=O)C13 (configuration not stated)	28.4
Cn1c(=O)c2c(ncn2CCNC(CO)C(O)c2ccc([N+](=O)[O-])cc2)n(C)c1=O (configuration not stated)	> 100
CCCNC(=O)NNC(=O)c1c[nH]c2nc(C)ccc2c1=O	> 100
C=CCCON(C(=O)OC(C)(C)C)C(C)(C)C	> 100
CCOC(=O)Nc1[nH]cc(-c2ccccc2)c1C#N	> 100
[N-]=[N+]=NC1(Cc2ccccc2)C(=O)c2cccc3c2N(CCC3)C1=O (configuration not stated)	> 100
O=c1oc2ccccc2cc1-c1cc2ccccn2c1	> 100
COC(=O)c1c(O)ccc2c1c1c(n2Cc2cc(OC)cc(OC)c2)C(=O)c2ccccc2C1	> 100
COC[C@@H](N=CC(C)(C)C)C(C)C	> 100
NC(N)=NCCN1CC2CCC(CC2)C1	> 100
CCOC(=O)NC(Nc1ccc(C)cc1)(C(F)(F)F)C(F)(F)F	> 100
[N-]=[N+]=Nc1c([N+](=O)[O-])c(=O)n(-c2ccccc2)c2ccccc12	96.9
O=[N+]([O-])c1ccc2[nH]c(=S)[nH]c(=S)c2c1	> 100

Tested on: PC-3 prostate
Test: NCI anticancer screen, dose series, 48 h

Structure (SMILES)	TGI [µM]
O=[N+]([O-])C[C@@]12O[C@]3(O)C4C5CC(C6C5C3C61)C42 (some centres not stated)	> 100
O=C1C2SC34c5c2c2ccccc2n5CCC3CCCN14 (configuration not stated)	> 100
CCCC(=O)NC(NC1CCCCC1)(C(=O)OCC)C(F)(F)F (configuration not stated)	> 100
O=C(/C=C/c1ccccc1)Oc1cccc(O)c1	> 100
COc1cccc(C(=O)Oc2ccc(OS(=O)(=O)c3ccc(C)cc3)cc2)c1C#N	> 100
CC1(C)/C(=N\NC(N)=O)C2CCC1C2 (configuration not stated)	> 100
Cc1ccc(C2SCC(=O)N2c2ccc(-n3c(-c4ccccc4)nc4ccccc4c3=O)cc2)cc1 (configuration not stated)	55.4
CC1(C)[C@@H](Cn2ccc(=O)[nH]c2=O)CC[C@@]1(C)CO	> 100
CC(C)C1=CC23CCC4C(C)(C(=O)O)CCCC4(C)C2CC1C1C(=O)N(c2ccc(Cc4ccc(N5C(=O)C6C7CC8C9(C)CCCC(C)(C(=O)O)C9CCC8(C=C7C(C)C)C6C5=O)cc4)cc2)C(=O)C13 (configuration not stated)	15.7
Cn1c(=O)c2c(ncn2CCNC(CO)C(O)c2ccc([N+](=O)[O-])cc2)n(C)c1=O (configuration not stated)	> 100
